The text below walks through data of patent US20110071197A1, “BIS-ARYL COMPOUNDS FOR USE AS MEDICAMENTS” (priority 2008, published 2011).

The target of this assay is T1, Recombinant human LTC4 synthase (Homo sapiens, UniProt Q16873).
T1 construct: made in house; host or cells: Pichia pastoris
T1 sequence (Q16873 1-150): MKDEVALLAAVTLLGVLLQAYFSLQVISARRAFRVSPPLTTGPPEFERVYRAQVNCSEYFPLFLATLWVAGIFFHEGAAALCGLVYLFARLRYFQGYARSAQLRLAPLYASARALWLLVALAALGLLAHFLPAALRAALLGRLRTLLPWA
Nature of the assay: LTC4 synthase in vitro assay (HTRF detection of LTC4). The note with it: HTRF method; for inhibition at 10 µM / % inh.: total concentration of title compound in the assay 10 μM. Format: biochemical. In outline:
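Pichia-expressed recombinant human LTC4 synthase at 0.5 μg/ml total protein in PBS pH 7.4 with 5 mM GSH, preincubated 10 min at RT with inhibitor (10 μM final). LTA4 (2.5 μM final) was then added for 5 min at RT. LTC4 formed was read by HTRF.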
On the technique in general: Time-resolved FRET reads energy transfer from a long-lived donor to a nearby acceptor.

Regarding `O=C(Nc1ccc(Cl)cc1)Nc1ccc(Sc2ccc(NC(=O)Nc3ccc(Cl)cc3)c(C(=O)O)c2)cc1` [14:5, 2-[3-(4-chlorophenyl)-ureido]-5-{4-[3-(4-chlorophenyl)-ureido]phenylsulfanyl}-benzoic acid], the inhibition (in general, the drop in the measured response relative to a control, in per cent) at 10 µM turned out to be 97%. For `CCCCOc1ccc(S(=O)(=O)Nc2ccc(Oc3cccc(NCc4cccc(OC)c4OC)c3)cc2C(=O)O)cc1` [23:2, 2-(4-Butoxybenzenesulfonylamino)-5-[3-(2,3-dimethoxybenzylamino)-phenoxy]benzoic acid], the inhibition at 10 µM was determined as 99%.

`O=C(NS(=O)(=O)c1cccc(Cl)c1F)c1cccc(Oc2ccc(Nc3ccc(Cl)cc3)c(C(=O)O)c2)c1` [20:3, 5-[3-(3-Chloro-2-fluoro-benzene-sulfonylaminocarbonyl)-phenoxy]-2-(4-chloro-phenylamino)-benzoic acid]: the inhibition at 10 µM came out at 97%. As to `O=C(O)c1cc(Oc2cccc(Oc3ccc(F)c(F)c3)c2)ccc1Nc1ccc(F)c(F)c1` [Example 28:3, 5-[3-(3,4-Difluoro-phenoxy)-phenoxy]-2-(3,4-difluoro-phenylamino)-benzoic acid], the inhibition at 10 µM was 96%. As to `CCCCOc1ccc(S(=O)(=O)Nc2ccc(Oc3ccc(N(C)C(=O)c4cccc(Cl)c4Cl)c(C(=O)O)c3)cc2)cc1` [11:10, 5-[4-(4-butoxybenzenesulfonyl-amino)phenoxy]-2-[(2,3-di-chlorobenzoyl)methylamino]-benzoic acid], the inhibition at 10 µM amounted to 95%. For `O=C(Nc1ccc(Sc2ccc(NC(=O)c3ccc(C(F)(F)F)cc3)c(C(=O)O)c2)cc1C(=O)O)c1ccc(C(F)(F)F)cc1` [13:3, 2-(4-(trifluoromethyl)-benzamido)-5-((4-(4-(trifluoromethyl)benzamido)-3-carboxyphenyl)sulfanyl)benzoic acid], the inhibition at 10 µM turned out to be 99%. Turning to `COc1ccc(S(=O)(=O)N(C)c2ccc(Oc3ccc(NC(=O)c4ccccc4C(F)(F)F)c(C(=O)O)c3)cc2)cc1` [11:18, 5-{4-[(4-Methoxy-benzenesulfonyl)-methyl-amino]-phenoxy}-2-(2-trifluoromethyl-benzoylamino)-benzoic acid], the inhibition at 10 µM worked out at 96%. In the case of `CCCCOc1ccc(S(=O)(=O)Nc2ccc(Oc3cccc(NCc4cccc(Cl)c4Cl)c3)cc2C(=O)O)cc1` [23:3, 2-(4-Butoxybenzenesulfonylamino)-5-[3-(2,3-dichlorobenzylamino)-phenoxy]benzoic acid], the inhibition at 10 µM came out at 98%. With `Cc1nc(C(F)(F)F)ccc1C(=O)Nc1ccc(Oc2ccc(NS(=O)(=O)c3ccc(F)c(Cl)c3)c(C(=O)O)c2)cc1` [21:1, 2-(3-Chloro-4-fluoro-benzenesulfonylamino)-5-{4-[(2-methyl-6-trifluoromethyl-pyridine-3-carbonyl)-amino]-phenoxy}-benzoic acid], the inhibition at 10 µM came to 100%. Regarding `CCCCc1ccc(C(=O)Nc2ccc(Oc3ccc(NC(=O)c4ccc(C(F)(F)F)cc4)c(C(=O)O)c3)cc2)cc1` [8:4, 5-[4-(4-(butyl)benzoylamino)-phenoxy]-2-(4-trifluoromethyl-benzoylamino)benzoic acid], the inhibition at 10 µM was determined as 89%. Regarding `O=C(Nc1ccc(Oc2ccc(NC(=O)c3ccc([N+](=O)[O-])cc3)c(C(=O)O)c2)cc1C(=O)O)c1ccc([N+](=O)[O-])cc1` [4:3, 5-[3-carboxy-4-(4-nitrobenzamido)phenyloxy]-2-(4-nitrobenzamido)benzoic acid], the inhibition at 10 µM came to 97%.

In the case of `O=C(O)c1cc(Nc2ccc(F)c(F)c2)cc(Oc2ccc(NC(=O)c3cccc(Cl)c3)cc2)c1` [18:5, 3-[4-(3-Chloro-benzoylamino)-phenoxy]-5-(3,4-difluoro-phenylamino)-benzoic acid], the inhibition at 10 µM stood at 100%.

As for `CC(C)(C)c1ccc(C(=O)Nc2ccc(Oc3ccc(NC(=O)c4ccc(Cl)nc4Cl)c(C(=O)O)c3)cc2)cc1` [8:20, 5-[4-(4-tert-Butylbenzoyl-amino)phenoxy]-2-[(2,6-di-chloropyridine-3-carbonyl)-amino]benzoic acid], the inhibition at 10 µM was found to be 96%. Turning to `CCCCc1ccc(C(=O)Nc2cccc(Oc3ccc(NC(=O)c4ccccc4OC)c(C(=O)O)c3)c2)cc1` [10:3, 5-[(3-(4-(1-butyl)benzoylamino)-phenoxy)]-2-(2-methoxybenzoyl-amino)benzoic acid], the inhibition at 10 µM is 95%. Turning to `O=C(O)c1cc(Oc2ccc(Nc3ccc(F)c(F)c3)c(C(=O)O)c2)ccc1Nc1ccc(F)c(F)c1` [1:3, 3,3′-oxybis[6-(3,4-difluorophenyl-amino)benzoic acid]], the inhibition at 10 µM was 100%. Consider `CCCCc1ccc(C(=O)Nc2ccc(Oc3ccc(NC(=O)c4ccc(Cl)cc4Cl)c(CC(=O)O)c3)cc2C(=O)O)cc1` [6:1, 2-(4-butyl-benzoyl-amino)-5-[3-carboxy-methyl-4-(2,4-dichloro-benzoylamino)phenoxy]-benzoic acid], for which the “% inh.” value was 99%.

Take `O=C(O)c1cc(Oc2cccc(NCc3cccc(Cl)c3F)c2)ccc1NS(=O)(=O)c1ccc(Cl)cc1Cl` [23:5, 5-[3-(3-Chloro-2-fluorobenzylamino)-phenoxy]-2-(2,4-dichlorobenzene-sulfonylamino)benzoic acid]: the inhibition at 10 µM is 98%.

On to `Cc1nc(C(F)(F)F)ccc1C(=O)Nc1ccc(Oc2ccc(NS(=O)(=O)c3cc(Cl)cc(Cl)c3O)c(C(=O)O)c2)cc1` [21:2, 2-(3,5-Dichloro-2-hydroxy-benzene-sulfonylamino)-5-{4-[(2-methyl-6-trifluoromethyl-pyridine-3-carbonyl)-amino]-phenoxy}-benzoic acid], for which the inhibition at 10 µM amounted to 98%. As to `O=C(O)Cc1cc(Oc2ccc(NC(=O)c3ccc(C(F)(F)F)cc3F)c(C(=O)O)c2)ccc1NC(=O)c1cccc(Cl)c1` [6:4, 5-[3-carboxymethyl-4-(3-chloro-benzoylamino)-phenoxy]-2-(2-fluoro-4-trifluoromethylbenzoyl-amino)benzoic acid], the inhibition at 10 µM is 96%. As for `Cc1nc(C(F)(F)F)ccc1C(=O)Nc1ccc(Oc2ccc(NC(=O)c3ccc(C(F)(F)F)cc3)c(C(=O)O)c2)cc1` [8:5, 5-[4-((2-methyl-6-(trifluoro-methyl)-pyridine-3-carbonyl)-amino)-phenoxy]-2-(4-(trifluoro-methyl)-benzoylamino)-benzoic acid], where the note is “compound concentration 3 μM”, the inhibition at 3 µM was found to be 83%. For `O=C(O)c1cc(Oc2ccc(Nc3ccc(F)c(F)c3)c(C(=O)O)c2)ccc1Nc1ccc(C(F)(F)F)nc1` [1:5, 5-[3-carboxy-4-(3,4-difluoro-phenylamino)phenyloxy]-2-(6-trifluoromethylpyridin-3-yl-amino)-benzoic acid], the inhibition at 10 µM was 99%. Regarding `CCCCOc1ccc(S(=O)(=O)Nc2ccc(Oc3cccc(C(=O)NS(=O)(=O)c4ccc(F)cc4)c3)cc2C(=O)OC(C)(C)C)cc1` [20:4, 2-(4-Butoxy-benzenesulfonylamino)-5-[3-(4-fluoro-benzenesulfonylamino-carbonyl)-phenoxy]-benzoic acid t-butyl ester], the inhibition at 10 µM amounted to 99%.

As to `O=C(Nc1ccc(Oc2ccc(NS(=O)(=O)c3ccc(C(F)(F)F)cc3Cl)cc2)cc1C(=O)O)c1ccc(C(F)(F)F)cc1` [11:2, 5-[4-(2-chloro-4-trifluoromethyl-benzenesulfonylamino)phenoxy]-2-(4-trifluoromethylbenzoyl-amino)benzoic acid], the inhibition at 10 µM turned out to be 97%. Consider `COc1ccc(S(=O)(=O)N(C)c2ccc(Oc3ccc(NC(=O)c4ccccc4OC(F)(F)F)c(C(=O)O)c3)cc2)cc1` [11:19, 5-{4-[(4-Methoxy-benzenesulfonyl)-methyl-amino]-phenoxy}-2-(2-trifluoromethoxy-benzoylamino)-benzoic acid], for which the inhibition at 10 µM is 97%. In the case of `N#Cc1ccc(C(=O)Nc2ccc(Oc3ccc(NC(=O)c4cccc(Cl)c4)c(C(=O)O)c3)cc2C(=O)O)cc1` [2:9, 5-[3-carboxy-4-(4-cyanobenzamido)-phenyloxy]-2-(3-chlorobenzamido)benzoic acid], the inhibition at 10 µM came to 99%. Take `O=C(O)c1cc(Oc2ccc(Nc3cc(C(F)(F)F)ccc3Cl)c(C(=O)O)c2)ccc1Nc1ccc(F)c(F)c1` [1:1, 5-(3-carboxy-4-(2-chloro-5-trifluoromethylphenylamino)-phenyloxy)-2-(3,4-difluoro-phenylamino)benzoic acid]: the inhibition at 10 µM amounted to 98%. For “2-(2,3-dichlorobenzylamino)-5-{4-[(4-methoxybenzene-sulfonyl)methyl-amino]-phenoxy}benzoic acid [Example 11:12]”, the “% inh.” value was found to be 92%. For the compound `O=C(Nc1ccc(Oc2ccc([N+](=O)[O-])c(C(=O)O)c2)cc1C(=O)O)c1ccc(C(F)(F)F)cc1` [3:2, 2-nitro-5-[4-(4-trifluoromethyl-benzoylamino)-3-carboxy-phenoxy]benzoic acid], the inhibition at 10 µM was found to be 86%. Regarding `CCCCOc1ccc(S(=O)(=O)Nc2ccc(Oc3ccc(Nc4ccc(F)c(F)c4)cc3)cc2-c2nnn[nH]2)cc1` [Example 32:3, 4-Butoxy-N-[4-[4-(3,4-difluorophenyamino)phenoxy]-2-(tetrazol-5-yl)phenyl]-benzenesulfonamide], the “% inh.” value was 98%. As for `O=C(O)Cc1cc(Oc2ccc(NC(=O)c3ccc(C(F)(F)F)cc3F)cc2)ccc1NC(=O)c1cccc(Cl)c1` [17:1, {2-(3-chloro-benzoylamino)-5-[4-(2-fluoro-4-trifluoromethyl-benzoylamino)-phenoxy]-phenyl}-acetic acid], the inhibition at 10 µM came to 96%.

With `CN(c1cc(Oc2ccc(Nc3ccc(C(=O)C4CC4)cc3)cc2)cc(C(=O)O)c1)c1ccc(F)c(F)c1` [18:3, 3-[4-(4-Cyclopropanecarbonyl-phenylamino)-phenoxy]-5-[(3,4-difluoro-phenyl)-methyl-amino]-benzoic acid], the inhibition at 10 µM was determined as 95%.
